pIC50: −log10 of the molar value.
Tests used:
Rat DRG cells = assay: Cisplatin-induced neurite degeneration in DRG cells; type: cell-based; conditions: 0.3 μM with 0.5 mM cisplatin, 48 hours; p<0.05; FIG. 3
Experimental: Rat DRG cells were used to investigate the protective effect of HDAC6 inhibitors. DRG cells were treated with 0.5 mM of cisplatin with or without 0.3 μM of COMPOUND 2 or ACY1215 for 48 hours. The neurite area and the number of blebs (cell apoptosis) per image were calculated and their ratio values among the tested groups were compared and shown in FIG. 3.

[1] = tested on: cisplatin-induced neuropathy; assay: Cisplatin-induced neuropathy, von Frey paw-withdrawal murine model; type: in vivo, Balb/c mice; conditions: oral once daily Day 16 to 29 (pregabalin 15 mg/kg one hour prior to test); vs cisplatin control; FIG. 4
Experimental: To understand whether COMPOUND 2 exerts neuron protective activities in cisplatin-induced neuropathy, a paw-withdrawal murine model is deployed. The 50% paw withdrawal threshold (PWT) to a static mechanical stimulus was assessed using von Frey filament and up-and-down method following the procedure described by Chaplan (1994). Mechanical allodynia, a painful sensation caused by innocuous stimuli like light touch, was assessed by the manual von Frey test once per week (on day 7, 14, 21, 28, […], and 42). The animals indicated sensation by pulling back its paw. The minimum force leading to withdrawal of the paw was regarded as the reflex threshold.
Balb/c mice weighing about 25±2 gram were given cisplatin intraperitoneally at the dose of 1.5 mg/kg for 5 consecutive days (cumulative dose of 7.5 mg/kg), followed by 5 days of recovery. The cisplatin administration cycle was repeated once more to reach a cumulative dose of 15 mg/kg to induce neuropathy. Test compounds, COMPOUND 2 and ACY1215, were orally administered once daily for 2 weeks (except for the weekends) from Day 16 to 29. Pregabalin, a drug known to provide transient pain relief, was administered at a dose of 15 mg/kg prior to each von Frey stimulus test to serve as the positive control.

HDAC1 = target: T1, HDAC1 (Homo sapiens, UniProt Q13547); assay: HDAC1 activity, acetylated-AMC-labeled peptide substrate; type: biochemical
T1 construct: GST (C); host or cells: baculovirus expression system, Sf9 insect cells (SP9 [sic])
Experimental: (§1) The activities of HDAC 1 and 6 were measured by using an acetylated-AMC-labeled peptide substrate, a fluorogenic peptide from p53 residues 379-382 (RHIKKAc). The proteins involved in the assay are as the followings (1) Human HIDAC1 (Genflank Accession No. NM_004964): Full length with C-terminal GST tag, MW=79.9 kDa, expressed by baculovirus expression system in SP9 cells; and (2) Human HIDAC6 (Genflank Accession No. BC069243): Full length with N-terminal GST tag, MW=159 kDa, expressed by baculovirus expression system in Sf9 cells.

HDAC6 = target: T2, HDAC6 (Homo sapiens, UniProt Q9UBN7); assay: HDAC6 activity, acetylated-AMC-labeled peptide substrate; type: biochemical; conditions: for HDAC6 selectivity (A)/(B): HDAC1 IC50 / HDAC6 IC50; for pIC50: read-out: HDAC6 IC50 (B)
T2 construct: GST (N); host or cells: baculovirus expression system, Sf9 insect cells
T2 sequence (Q9UBN7 1-1215): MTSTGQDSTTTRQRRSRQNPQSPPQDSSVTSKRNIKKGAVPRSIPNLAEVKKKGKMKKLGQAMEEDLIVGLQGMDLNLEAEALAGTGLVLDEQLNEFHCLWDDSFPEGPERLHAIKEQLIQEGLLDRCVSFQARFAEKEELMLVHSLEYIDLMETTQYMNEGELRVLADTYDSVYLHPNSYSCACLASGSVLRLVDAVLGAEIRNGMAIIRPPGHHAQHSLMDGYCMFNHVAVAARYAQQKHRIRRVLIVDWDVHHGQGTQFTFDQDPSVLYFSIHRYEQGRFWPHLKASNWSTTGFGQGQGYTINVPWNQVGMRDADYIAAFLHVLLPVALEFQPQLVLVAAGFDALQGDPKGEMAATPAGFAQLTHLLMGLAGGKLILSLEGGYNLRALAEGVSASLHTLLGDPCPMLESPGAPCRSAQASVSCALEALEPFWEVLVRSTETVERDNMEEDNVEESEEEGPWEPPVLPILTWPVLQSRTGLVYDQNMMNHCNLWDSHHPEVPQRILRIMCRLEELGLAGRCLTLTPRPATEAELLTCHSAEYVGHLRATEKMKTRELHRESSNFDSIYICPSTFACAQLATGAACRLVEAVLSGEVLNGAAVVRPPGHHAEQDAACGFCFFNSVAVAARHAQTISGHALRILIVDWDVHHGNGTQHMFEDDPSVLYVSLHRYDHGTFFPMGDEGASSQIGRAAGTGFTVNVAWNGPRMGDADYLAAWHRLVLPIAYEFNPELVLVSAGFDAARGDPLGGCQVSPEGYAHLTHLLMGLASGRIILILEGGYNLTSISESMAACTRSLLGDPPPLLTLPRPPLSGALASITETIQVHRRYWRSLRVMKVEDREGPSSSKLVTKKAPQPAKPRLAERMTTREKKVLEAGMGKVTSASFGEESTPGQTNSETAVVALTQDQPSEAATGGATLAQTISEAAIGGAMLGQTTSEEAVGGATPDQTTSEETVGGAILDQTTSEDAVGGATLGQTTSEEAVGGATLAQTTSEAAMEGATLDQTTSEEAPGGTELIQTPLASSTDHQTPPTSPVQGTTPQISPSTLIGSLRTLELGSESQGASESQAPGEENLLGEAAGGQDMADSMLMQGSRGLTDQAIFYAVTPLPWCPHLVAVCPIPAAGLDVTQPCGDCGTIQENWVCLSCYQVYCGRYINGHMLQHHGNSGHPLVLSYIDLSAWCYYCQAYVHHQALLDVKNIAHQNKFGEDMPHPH
Experimental: as §1

[2] = Oral pharmacokinetics (Table II); design: AUC: concentration or dose not given beside the values; conditions: in vivo; for AUC: unit inferred
[3] = tested on: dorsal root ganglion (DRG) cells; assay: DRG neurite outgrowth after paclitaxel-induced damage; type: cell-based, C57BL/6J mice; conditions: 0.1 μM and 1 μM, 24 hours prior to 24-hour 0.1 μM paclitaxel; FIG. 1
Experimental: (§2) To investigate the effect of HDAC6 inhibitors in neuron protection and neuron regeneration, the recovery of dorsal root ganglion (DRG) cells post-paclitaxel injury was tested. Dorsal root ganglion was extracted from 7 week-old female C57BL/6J mice and incubated with HDAC6 inhibitors (compounds COMPOUND 33, COMPOUND 34, or COMPOUND 2) at the concentrations of 0.1 μM and 1 μM, or 100 ng/ml of BDNF, a neuronal growth factor (positive control), for 24 hours prior to a 24-hour incubation of 0.1 μM paclitaxel.
The neurite was stained by pIII-tubulin.

[4] = tested on: acetylated α-tubulin (Ac-α-tub); assay: Western blot of acetylated α-tubulin in primary DRG cells; type: cell-based, C57BL/6J mice; conditions: 48 hours of treatment, FIG. 2
Experimental: as §2

[5] = tested on: paclitaxel-induced peripheral neuropathy; assay: Paclitaxel-induced peripheral neuropathy, Von Frey test; type: in vivo, Sprague-Dawley (SD) rats; conditions: for mean withdrawal force threshold: 15 mg/kg one hour prior to test, mean±SEM
Experimental: Male Sprague-Dawley (SD) rats, weighing 320±30 grams, were given paclitaxel intraperitoneally at the dose of 6 mg/kg for 5 consecutive days with a total cumulative dose of 30 mg/kg to induce chemotherapy-induced peripheral neuropathy.
Compound 2 or vehicle was administered orally once daily for 2 weeks during the weekdays (Days 8 to 12 and 15-19). Mechanical allodynia is assessed by the manual Von Frey test once per week. The animals are given 20 to 30 minutes to acclimatize prior to the testing. The paw is pressed with a series of 8 manual Von Frey monofilaments with logarithmically incremental stiffness [3.61 (0.4 g), 3.84 (0.6 g), 4.08 (1.0 g), 4.31 (2.0 g), 4.56 (4.0 g), 4.93 (8.0 g), 5.18 (15.0 g) and (26.0 g)]. The manual Von Frey monofilament was applied perpendicularly from underneath the mesh floor to the central plantar surface with sufficient force to cause a slight buckling against the paw, and held for approximately 6-8 seconds. A positive response was noted if the paw is sharply withdrawn; ambulation is considered an ambiguous response, and in such cases, the stimulus is reapplied. The 50% paw withdrawal threshold (PWT) to a static mechanical stimulus was assessed using Von Frey filament and up-and-down method.
Von Frey data were presented as mean±SEM (Standard Error of the Mean). Treatment groups were compared to the paclitaxel control using Student's T-test. A p value <0.05 is considered to represent a significant difference.

T1 sequence (Q13547 whole entry): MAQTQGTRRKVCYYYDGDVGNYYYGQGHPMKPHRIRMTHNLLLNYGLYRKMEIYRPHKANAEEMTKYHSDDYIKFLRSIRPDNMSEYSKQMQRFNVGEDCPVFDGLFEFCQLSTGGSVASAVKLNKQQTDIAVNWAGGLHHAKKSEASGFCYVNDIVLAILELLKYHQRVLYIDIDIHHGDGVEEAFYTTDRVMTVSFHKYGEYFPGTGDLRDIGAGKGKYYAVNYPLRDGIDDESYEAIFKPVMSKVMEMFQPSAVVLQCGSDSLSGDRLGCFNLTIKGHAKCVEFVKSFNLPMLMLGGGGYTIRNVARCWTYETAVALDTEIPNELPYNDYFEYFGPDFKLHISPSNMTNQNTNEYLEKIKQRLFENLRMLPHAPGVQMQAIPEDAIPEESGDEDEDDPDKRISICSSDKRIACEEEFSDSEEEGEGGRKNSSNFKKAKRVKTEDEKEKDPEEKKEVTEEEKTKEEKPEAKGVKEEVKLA

Row | Structure (SMILES) | neurite degeneration (neurite area and number of blebs ratio) (Rat DRG cells) | mean withdrawal threshold (50% PWT) [1] | pIC50 (HDAC1) | HDAC6 selectivity (A)/(B) (HDAC6) | pIC50 (HDAC6) | Cmax [2] [ng/mL] | AUC [2] [ng·h/mL] | neurite outgrowth [3] | tubulin hyperacetylation [4] | mean withdrawal force threshold ([5]; Day 14) [g] | mean withdrawal force threshold ([5]; Day 21) [g] | pain-relief after dosing was stopped ([5]; FIG. 7)
1 | O=C(CCCCCCNC(=O)c1cnc(N(c2ccccc2)c2ccccc2)nc1)NO [ACY-1215, reference compound] | significantly lesser degree of neurite degeneration | not ACY1215, Reverses Cisplatin-Induced Neuropathy |  |  |  |  |  |  |  |  |  | 
2 | Cc1cccc(C)c1-n1c(C)nc2cc(F)c(/C=C/C(=O)NO)cc2c1=O [Compound 1, (E)-3-(3-(2,6-dimethylphenyl)-7-fluoro-2-methyl-4-oxo-3,4-dihydroquinazolin-6-yl)-N-hydroxyacrylamide] |  |  | 5.40 | 328 | 7.92 | 4130 | 5830 |  |  |  |  | 
3 | CCc1nc2cc(F)c(/C=C/C(=O)NO)cc2c(=O)n1-c1ccc(Br)cc1C [Compound 6, (E)-3-(3-(4-bromo-2-methylphenyl)-2-ethyl-7-fluoro-4-oxo-3,4-dihydroquinazolin-6-yl)-N-hydroxyacrylamide] |  |  | 5.29 | 85 | 7.22 | 3630 | 42600 |  |  |  |  | 
4 | CCc1nc2c(F)cc(/C=C/C(=O)NO)cc2c(=O)n1-c1c(C)cccc1C [Compound 11, (E)-3-(3-(2,6-dimethylphenyl)-2-ethyl-8-fluoro-4-oxo-3,4-dihydroquinazolin-6-yl)-N-hydroxyacrylamide] |  |  | 5.16 | 43 | 6.80 | 727 | 7180 |  |  |  |  | 
5 | CCc1nc2cc(F)c(/C=C/C(=O)NO)cc2c(=O)n1-c1cccc(C)c1C [Compound 22, (E)-3-(3-(2,3-dimethylphenyl)-2-ethyl-7-fluoro-4-oxo-3,4-dihydroquinazolin-6-yl)-N-hydroxyacrylamide] |  |  | 5.37 | 77 | 7.26 | 3330 | 9920 |  |  |  |  | 
6 | CCc1nc2cc(F)c(/C=C/C(=O)NO)cc2c(=O)n1-c1ccc(F)cc1C [Compound 26, (E)-3-(2-ethyl-7-fluoro-3-(4-fluoro-2-methylphenyl)-4-oxo-3,4-dihydroquinazolin-6-yl)-N-hydroxyacrylamide] |  |  | 5.36 | 180 | 7.62 | 2680 | 12000 |  |  |  |  | 
7 | CCc1nc2cc(F)c(/C=C/C(=O)NO)cc2c(=O)n1-c1ccc(OC)cc1C [Compound 34, (E)-3-(2-ethyl-7-fluoro-3-(4-methoxy-2-methylphenyl)-4-oxo-3,4-dihydroquinazolin-6-yl)-N-hydroxyacrylamide] |  |  | 5.34 | 175 | 7.59 | 873 | 11000 | significantly rescued the neurite outgrowth | tubulin hyperacetylation |  |  | 
8 | Cc1ccccc1-n1c(C)nc2cc(F)c(/C=C/C(=O)NO)cc2c1=O [Compound 44] |  |  | 5.59 | 129 | 7.70 | 719 | 5720 |  |  |  |  | 
9 | CC(C)C[C@H](CN)CC(=O)O [Pregabalin, reference compound] |  | increased withdrawal threshold |  |  |  |  |  |  |  | 24.1 ± 3.45 | 26 ± 0 | failed to show the efficacy

Reference: patent US20230212129A1, “QUINAZOLINE DERIVATIVES USEFUL AS SELECTIVE HDAC6 INHIBITORS” (AnnJi Pharmaceutical Co., Ltd., priority 2020, published 2023)
